Measurements reported in US20240082263A1, “PHARMACEUTICAL COMPOSITION FOR COMBINATION THERAPY COMPRISING MELATONIN AND PROSTAGLANDIN E2 FOR TREATING INTESTINAL EPITHELIAL INJURY AS AN ACTIVE INGREDIENT” (PUSAN NATIONAL UNIVERSITY INDUSTRY-UNIVERSITY COOPERATION …, priority 2022, published 2024).

Legend:
Type in all cases: cell-based
[1] = test system: mouse small intestine epithelial organoids; assay: Flow cytometry of Ly6a-expressing cells in organoids; details: FIG. 2; for revival stem cell induction (ratio of Ly6a-expressing cells): flow cytometry, 2-iodomelatonin 200 μM, 8M-PDOT 200 μM, Butaprost 10 μM, Cay10598 10 μM, 5 days; for effect of receptor inhibitor on induction of revival stem cells: co-treated to PGE2 alone group and 8M-PDOT and PGE2 combined group, L-161,982 10 μM, PF-04418948 20 μM
Description: (§1) Mouse-derived small intestinal epithelial organoids were obtained as follows. First, small intestine tissue (duodenum about 10-15 cm) was isolated from 8-week-old C57BL/6N mice, and the intestinal lumen was washed with PBS using a 1 ml pipette tip, and the tissue was opened with the lumen facing up, and the remaining mucus, food, and intestinal villi were scraped off and removed. Thereafter, about 25 ml of PBS was filled in a 50 ml tube, and the intestinal tissue was cut to a length of about 2 to 4 mm and washed by shaking vigorously (repeated about 3 to 4 times). The washed intestinal tissue was suspended in 20 ml of Gentle cell dissociation reagent (100-0485, stemcell technologies) and reacted for 15 to 20 minutes while shaking at 20 rpm at room temperature. After the reaction was completed, crypts were separated from the intestinal tissue by vortexing at maximum speed for 5 seconds, and the tissue was removed and centrifuged at 290 g for 5 minutes. The collected cell pellet was resuspended in 10 ml of PBS, centrifuged at 290 g for 5 minutes, and then the cell pellet was suspended in DMEM/F12 medium to confirm the number of crypts. About 500 crypts per 24 well are mixed with 20 μl of cell culture medium (IntestiCult™ Organoid Growth Medium for Mouse, 05005, stemcell technologies) and 20 μl of Matrigel (354230, corning), planted in a dome shape in the center of the well, and placed in a cell culture incubator. After standing for 10 minutes and waiting for the gel to harden, 750 μl of IntestiCult was added and cultured.
In addition, changes in the percentage of cells expressing Ly6a, a specific marker for revival stem cells, were evaluated by flow cytometry. For flow cytometry, mouse small intestine epithelial organoids were treated with melatonin (500 μM) and PGE2 (100 nM) alone or in combination for 5 days, and the organoids were reacted with TrypLE™ Express Enzyme (Thermo Fisher) for 5 minutes at 37° C. to produce single cells. Thereafter, the Ly6a antibody (12-5981-82, Thermo Fisher) fluorescently labeled with PE was diluted 1:250 in PBS containing 3% BSA, and 200 μl of the diluted solution was mixed with the single celled sample and allowed to stand in a dark room at 4° C. for 1 hour. Then, each sample was washed with PBS (300 g, centrifuged for 5 minutes) and immediately analyzed with an Accuri C6 flow cytometer.
In order to further specify the mechanism of inducing revival stem cells, mouse-derived intestinal epithelial organoids were treated with a combination of various melatonin analogues and a specific agonist of the PGE2 receptor. […]

[2] = test system: Mouse-derived small intestinal epithelial organoids; assay: Microarray gene expression of revival stem cell markers in organoids; details: melatonin 500 μm, PGE2 100 nM, alone or in combination, 5 days
Description: as §1
The obtained mouse-derived small intestinal epithelial organoids were treated with melatonin (500 μm, 14427, Cayman) and PGE2 (prostaglandin E2, 100 nM; 14010, Cayman) alone or in combination for 5 days, and microarray was performed to track gene expression changes. RNA was extracted from the organoids using the RNeasy Kit (Qiagen), cDNA was synthesized using the GeneChip WT (Whole Transcript) Amplification kit, and analyzed using the Clariom™ S Affymetrix GeneChip Array (Affymetrix).

[3] = test system: Human-derived intestinal epithelial organoids; assay: Quantitative PCR of Clusterin (CLU) expression in organoids; details: same concentrations as in the mouse experiment, FIG. 3
Description: Human-derived intestinal epithelial organoids were treated with melatonin and its analogues and PGE2 to confirm whether revival stem cells were induced as observed in mouse intestinal organoids. In order to obtain intestinal epithelial organoids, donated human colon tissue was cut into a size of about 1 cm 2, placed in PBS containing gentamicin (10 μg/ml, Gibco), and allowed to stand at 4° C. for 30 minutes. Then, the tissue was taken out and the mucous layer was scraped off using forceps, and the process of shaking and washing in PBS was repeated 5 to 6 times, as in the case of mice. After washing, the tissue was put into 25 ml of Gentle cell dissociation reagent and reacted by shaking at 200 rpm for 20 minutes at 37° C. After vortexing at the maximum speed, the crypts were separated and cultured by washing in the same process as in mice. At this time, IntestiCult™ Organoid Growth Medium for Human (06010, stemcell technologies) was used as the culture medium. The obtained human intestinal epithelial organoids were treated alone or in combination with melatonin, 8M-PDOT, and PGE2 at the same concentrations as in the mouse experiment, and then the expression level of Clusterin (CLU) was compared through quantitative PCR. […]

Row | Compound | revival stem cell induction (ratio of Ly6a-expressing cells) [1] | effect of receptor inhibitor on induction of revival stem cells [1] | Cldn4 expression FC (fold change) vs control [2] | Clu expression FC (fold change) vs control [2] | Ly6a expression FC (fold change) vs control [2] | other results
1 | CCCC1([C@H](O)C/C=C/[C@H]2[C@H](O)CC(=O)[C@@H]2CCCCCCC(=O)OC)CCC1 [Butaprost] | did not show a specific induction effect | – | – | – | – | –
2 | O=C1CC[C@H](/C=C/[C@@H](O)Cc2ccccc2)N1CCCCCCc1nn[nH]n1 [Cay10598] | induction effect similar to or higher than that of PGE2 | – | – | – | – | –
3 | CCCCc1nn(-c2ccccc2C(F)(F)F)c(=O)n1Cc1ccc(-c2ccccc2S(=O)(=O)NC(=O)c2sccc2C)cc1 [L-161,982] | – | greatly suppressed | – | – | – | –
4 | COc1ccc2cc(OCC3(C(=O)O)CN(C(=O)c4ccc(F)cc4)C3)ccc2c1 [PF-04418948] | – | no effect | – | – | – | –
5 | CCCCC[C@H](O)/C=C/[C@H]1[C@H](O)CC(=O)[C@@H]1C/C=C\CCCC(=O)O [PGE2, prostaglandin E2] | – | – | 1.9264 | 1.7590 | 9.7349 | CLU expression [3]: increased
6 | COc1ccc2[nH]cc(CCNC(C)=O)c2c1 [melatonin] | – | – | 1.0013 | 1.2252 | 1.1646 | –
